{
  "source": "paper PMC12276006",
  "about": "“Structural basis for sensitivity and acquired resistance of fungal cap guanine-N7 methyltransferases to the antifungal antibiotic sinefungin” (Nucleic Acids Research, 2025)",
  "key": {"[1]": {"molecular_target": "human cap guanine-N7 methyltransferase RNMT", "conditions": "cited from earlier work"}, "[2]": {"test_system": "S. cerevisiae strain complemented with the mammalian capping apparatus", "set-up": "method as in PMID 10347220", "conditions": "cited from earlier work"}, "[3]": {"test_system": "recombinant S. cerevisiae Abd1", "conditions": "cited from earlier work"}, "[4]": {"test_system": "Ecm1", "conditions": "methylation of GTP by Ecm1 in the presence of 5 μM SAM; cited from earlier work"}, "[5]": {"molecular_target": "T1, ScAbd1-L59P-Y416C (Saccharomyces cerevisiae, UniProt P32783, L59P/Y416C)", "T1 construct": "aa 1–436); made in house; host or cells: Escherichia coli BL21 (DE3) CodonPlus RIL", "T1 sequence (P32783 whole entry L59P/Y416C, the tested form may be a part)": "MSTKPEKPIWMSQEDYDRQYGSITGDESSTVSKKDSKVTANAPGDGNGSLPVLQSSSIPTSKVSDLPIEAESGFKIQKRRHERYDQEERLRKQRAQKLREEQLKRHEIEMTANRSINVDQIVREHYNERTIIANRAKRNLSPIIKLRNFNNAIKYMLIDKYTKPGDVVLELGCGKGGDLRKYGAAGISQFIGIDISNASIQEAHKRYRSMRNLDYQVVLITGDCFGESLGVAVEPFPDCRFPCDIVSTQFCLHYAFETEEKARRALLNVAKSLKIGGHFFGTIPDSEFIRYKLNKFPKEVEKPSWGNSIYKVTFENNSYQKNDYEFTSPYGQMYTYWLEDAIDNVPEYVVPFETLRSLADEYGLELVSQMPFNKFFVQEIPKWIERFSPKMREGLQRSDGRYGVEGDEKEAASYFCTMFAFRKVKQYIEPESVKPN", "assay": "Inhibition of GpppA methylation by ScAbd1-L59P-Y416C", "assay_type": "biochemical", "conditions": "ScAbd1-L59P-Y416C 250 nM, 100 μM SAM, 250 μM GpppA, 30°C, 20 min", "experimental": "(§1) Reactions (50 μl) were performed in triplicate by incubating 250 nM cap methyltransferases with 100 μM SAM and 250 μM GpppA or 2 mM GTP at 30°C in a buffer consisting of 200 mM NaCl, 50 mM Tris–HCl (pH 8.2), and 5 mM βME. Samples (10 μl aliquots) were withdrawn at specified time points (KlAbd1s: 0, 2, 5, 10, and 15 min, Fig. 1A; ScAbd1s: 0, 5, 10, 15, and 20 min, Fig. 4A) and quenched with 10 μl of 100 mM H2SO4 and 50 μM L-tryptophan, and then stored at −80°C pending liquid chromatography-tandem mass spectrometry (LC–MS/MS) analyses.\n(§2) The quenched samples were thawed and centrifuged at 4000 × g at 4°C for 30 min to pellet denatured protein and the supernatants were transferred to a 96-well plate for analysis. Methylation was measured via HPLC with detection by MS conducted on an Agilent 1200 HPLC system coupled with a 6490 QQQ (Agilent Technologies). […] Samples were analyzed by the QQQ using multiple reaction monitoring (MRM) in negative mode, which measures peak intensities of the product ions of m^7GpppA (785: 408, 620 m/z) or m^7GTP (536.0: 159.0, 371.0 m/z) and the internal standard, L-tryptophan (203: 116, 141.9 m/z). […] ISTDs obtained from reaction samples quenched at specified time points were then used to interpolate either m^7GpppA or m^7GTP concentrations using the calibration curves and used for quantification. […]"}, "[6]": {"test_system": "ScAbd1 variants L59P-Y416C, Y416N-R422H, E124K-K163R-K311R-F387Y-Y416F and Y416A", "assay": "Inhibition of GpppA methylation, the four SFG-resistant ScAbd1 variants stated together", "assay_type": "biochemical, Saccharomyces cerevisiae", "conditions": "versus wild-type ScAbd1", "experimental": "as §1, §2"}, "[7]": {"test_system": "S. cerevisiae and an S. cerevisiae strain complemented with Candida albicans capping enzymes", "set-up": "method as in PMID 15964937, PMID 11035009", "conditions": "S. cerevisiae versus strain complemented with Candida albicans capping enzymes; cited from earlier work"}, "[8]": {"molecular_target": "T2, ScAbd1-E124K-K163R-K311R-F387Y-Y416F (Saccharomyces cerevisiae, UniProt P32783, E124K/F387Y/K163R/K311R/Y416F)", "T2 construct": "aa 1–436); made in house; host or cells: Escherichia coli BL21 (DE3) CodonPlus RIL", "T2 sequence (P32783 whole entry E124K/K163R/K311R/F387Y/Y416F, the tested form may be a part)": "as the sequence (P32783 whole entry L59P/Y416C, the tested form may be a part) above, with P59L, E124K, K163R, K311R, F387Y, C416F counted along it", "assay": "Inhibition of GpppA methylation by ScAbd1-E124K-K163R-K311R-F387Y-Y416F", "assay_type": "biochemical", "conditions": "ScAbd1-E124K-K163R-K311R-F387Y-Y416F 250 nM, 100 μM SAM, 250 μM GpppA, 30°C, 20 min", "experimental": "as §1, §2"}, "[9]": {"molecular_target": "T3, ScAbd1-Y416A (Saccharomyces cerevisiae, UniProt P32783, Y416A)", "T3 construct": "aa 1–436); made in house; host or cells: Escherichia coli BL21 (DE3) CodonPlus RIL", "T3 sequence (P32783 whole entry Y416A, the tested form may be a part)": "as the sequence (P32783 whole entry L59P/Y416C, the tested form may be a part) above, with P59L, C416A counted along it", "assay": "Inhibition of GpppA methylation by ScAbd1-Y416A", "assay_type": "biochemical", "conditions": "ScAbd1-Y416A 250 nM, 100 μM SAM, 250 μM GpppA, 30°C, 20 min", "experimental": "as §1, §2"}, "[10]": {"test_system": "S. cerevisiae abd1Δ pABD1* pSAM3 strains", "assay": "Spot test for growth of abd1Δ pSAM3 strains bearing ABD1 alleles on SFG-supplemented agar", "assay_type": "cell-based, Saccharomyces cerevisiae", "conditions": "30°C", "experimental": "A library of PCR-mutated ABD1 alleles (ABD1*) in a CEN TRP1 plasmid under the control of the ABD1 promoter was constructed as described. The pABD1* library DNA was transfected into S. cerevisiae strain abd1Δ pABD1 (CEN URA3 ABD1) pSAM3 (2µ HIS3 SAM3). Trp^+ His^+ transformants were selected and then plated to agar medium containing 5-fluoroorotic acid (FOA) to counter-select against the CEN URA3 ABD1 plasmid. FOA survivors were plated to Trp- His- agar plates (25 ml) to which 300 µl of a 2.5 or 5 µM solution of SFG had been applied. Colonies that grew well on SFG-containing plates were candidates for harboring SFG-resistant ABD1* alleles. To ascertain whether SFG-resistance was linked to ABD1, the plasmids were recovered from individual SFG-resistant strains and amplified clonally by transformation in E. coli. The pABD1* plasmid DNAs isolated from E. coli were transfected into S. cerevisiae abd1Δ pABD1 (CEN URA3 ABD1) pSAM3 (2µ HIS3 SAM3) strain. Trp^+ His^+ transformants were selected and plated to FOA for counterselection against the CEN URA3 ABD1 plasmid. The resulting abd1Δ pABD1* (CEN TRP1 ABD1*) pSAM3 (2µ HIS3 SAM3) strains were tested in parallel with a control abd1Δ pABD1 (CEN TRP1 ABD1) pSAM3 (2µ HIS3 SAM3) strain for growth on Trp- His- agar plates (25 ml) supplemented with SFG (300 µl of 0.63, 1.25, 2.5 and 5 µM SFG per plate). […]"}, "[11]": {"molecular_target": "T4, ScAbd1WT (Saccharomyces cerevisiae, UniProt P32783)", "T4 construct": "aa 1–436); made in house; host or cells: Escherichia coli BL21 (DE3) CodonPlus RIL", "assay": "Inhibition of GpppA methylation by wild-type ScAbd1 (LC-MS/MS assay)", "assay_type": "biochemical", "conditions": "for IC50: ScAbd1WT 250 nM, 100 μM SAM, 250 μM GpppA, 30°C, 20 min", "experimental": "as §1\n(§3) The quenched samples were thawed and centrifuged at 4000 × g at 4°C for 30 min to pellet denatured protein and the supernatants were transferred to a 96-well plate for analysis. Methylation was measured via HPLC with detection by MS conducted on an Agilent 1200 HPLC system coupled with a 6490 QQQ (Agilent Technologies). Assay samples were separated on an InfinityLab Poroshell 120 HILIC-Z column (2.1 mm × 100 mm, 2.7 μm particle size; Agilent Technologies) equilibrated in NH4Ac buffer [A: 10% 10 mM NH4Ac, pH 9.0, and 500 μM methylene diphosphonic acid/90% acetonitrile (ACN); B: 90% 10 mM NH4Ac, pH 9.0, and 500 μM methylene diphosphonic acid/10% ACN] with a flow rate 400 μl/min. The eluents of the column were directed to an electrospray ion source, connected to the QQQ. Samples were analyzed by the QQQ using multiple reaction monitoring (MRM) in negative mode, which measures peak intensities of the product ions of m^7GpppA (785: 408, 620 m/z) or m^7GTP (536.0: 159.0, 371.0 m/z) and the internal standard, L-tryptophan (203: 116, 141.9 m/z). The resultant peak intensities were then integrated. L-Tryptophan was used as an internal standard to perform cross-sample analysis. The m^7GpppA or m^7GTP product ion integrated intensities were normalized to the integrated ion intensity of L-tryptophan, yielding the ISTD. […] ISTDs obtained from reaction samples quenched at specified time points were then used to interpolate either m^7GpppA or m^7GTP concentrations using the calibration curves and used for quantification. […]"}, "[12]": {"molecular_target": "T5, KlAbd1 (K. lactis cap methyltransferase Abd1, wild-type) (Kluyveromyces lactis, UniProt Q6CKI0)", "T5 construct": "aa 1–426); His10-Smt3 (N, cleaved yes); made in house; host or cells: Escherichia coli BL21 (DE3) CodonPlus RIL", "assay": "Inhibition of GpppA methylation by KlAbd1 (LC-MS/MS assay)", "assay_type": "biochemical", "conditions": "for IC50: wild-type KlAbd1 250 nM, 100 μM SAM, 250 μM GpppA, 30°C, 10 min", "experimental": "as §1, §3"}, "[13]": {"molecular_target": "T6, ScAbd1-Y416N-R422H (Saccharomyces cerevisiae, UniProt P32783, R422H/Y416N)", "T6 construct": "aa 1–436); made in house; host or cells: Escherichia coli BL21 (DE3) CodonPlus RIL", "T6 sequence (P32783 whole entry Y416N/R422H, the tested form may be a part)": "as the sequence (P32783 whole entry L59P/Y416C, the tested form may be a part) above, with P59L, C416N, R422H counted along it", "assay": "Inhibition of GpppA methylation by ScAbd1-Y416N-R422H", "assay_type": "biochemical", "conditions": "ScAbd1-Y416N-R422H 250 nM, 100 μM SAM, 250 μM GpppA, 30°C, 20 min; read-out: SAH IC50", "experimental": "as §1, §2"}},
  "note": "Values joined by “and” are separate entries in the source; they are usually repeats but may differ in a detail not shown here. Equal entries are not always repeated. Where two headings read alike, the source gives them in different places.",
  "data": [
    {"compound": "Nc1ncnc2c1ncn2[C@@H]1O[C@H](C[C@@H](N)CC[C@H](N)C(=O)O)[C@@H](O)[C@H]1O", "note": "[SFG, sinefungin]", "values": [
      {"measurement": "IC50 of SFG lower than that of SAH", "setting": "[1]", "value": 130, "unit": "fold"},
      {"measurement": "potency of growth inhibition relative to S. cerevisiae with fungal capping system", "setting": "[2]", "value": "five-fold less potent"},
      {"measurement": "IC50", "setting": "[3]; S. cerevisiae Abd1 in vitro, GpppA, read-out: apparent IC50 of SFG", "value": 0.024, "unit": "µM"},
      {"measurement": "tighter binding of SFG than of SAM or SAH", "setting": "[3]; ScAbd1", "value": "up to 900 fold"},
      {"measurement": "potency of SFG versus SAH", "setting": "[3]; methylation of GpppA by recombinant S. cerevisiae Abd1", "value": 900, "unit": "fold"},
      {"measurement": "IC50", "setting": "[4]", "value": 1.5, "unit": "µM"},
      {"measurement": "IC50", "setting": "[5]; read-out: SFG IC50", "value": "1.35 ± 0.0699", "unit": "µM"},
      {"measurement": "increase of the IC50 for SFG in the SFG-resistant mutants", "setting": "[6]", "value": 20, "unit": "fold"},
      {"measurement": "potency of growth inhibition, comparison of the two strains", "setting": "[7]", "value": "equal potency"},
      {"measurement": "IC50", "setting": "[8]; read-out: SFG IC50", "value": "1.47 ± 0.0677", "unit": "µM"},
      {"measurement": "IC50", "setting": "[9]; read-out: SFG IC50", "value": "1.47 ± 0.077", "unit": "µM"},
      {"measurement": "SFG resistance of growth", "setting": "[10]; single ABD1-Y416A mutation, abd1Δ pSAM3 (2μ HIS3 SAM3) strain background, agar", "value": "sufficed to confer SFG resistance"},
      {"measurement": "sensitivity to growth inhibition by SFG", "setting": "[10]; three ABD1* strains (L59P-Y416C, Y416N-R422H, E124K-K163R-K311R-F387Y-Y416F) versus isogenic wild-type ABD1, Trp- His- agar", "value": "less sensitive to growth inhibition by SFG than the isogenic wild-type ABD1 strain"},
      {"measurement": "IC50", "setting": "[11]; read-out: SFG IC50", "value": "0.065 µM and 0.0651 µM"},
      {"measurement": "sensitivity/affinity for SFG versus SAH (ratio of IC50 values)", "setting": "[11]; wild-type ScAbd1, GpppA substrate", "value": 485, "unit": "fold"},
      {"measurement": "potency of SFG versus SAH (ratio of the IC50 values)", "setting": "[12]; KlAbd1, GpppA substrate", "value": 240, "unit": "fold"},
      {"measurement": "IC50", "setting": "[12]; read-out: apparent IC50 of SFG", "value": "0.0521 ± 0.0131", "unit": "µM"}
    ]},
    {"compound": "Nc1ncnc2c1ncn2[C@@H]1O[C@H](CSCC[C@H](N)C(=O)O)[C@@H](O)[C@H]1O", "note": "[SAH, S-adenosylhomocysteine]", "values": [
      {"measurement": "IC50", "setting": "[3]; methylation of GpppA by recombinant S. cerevisiae Abd1, read-out: IC50 of SAH", "value": 21, "unit": "µM"},
      {"measurement": "IC50", "setting": "[13]", "value": "29.7 ± 4.7", "unit": "µM"},
      {"measurement": "IC50", "setting": "[4]", "value": 4, "unit": "µM"},
      {"measurement": "IC50", "setting": "[5]; read-out: SAH IC50", "value": "33.5 ± 2.3", "unit": "µM"},
      {"measurement": "IC50", "setting": "[8]; read-out: SAH IC50", "value": "35.6 ± 2.6", "unit": "µM"},
      {"measurement": "IC50", "setting": "[9]; read-out: SAH IC50", "value": "16.4 ± 2.6", "unit": "µM"},
      {"measurement": "IC50", "setting": "[11]; read-out: SAH IC50", "value": "31.6 ± 6.8", "unit": "µM"},
      {"measurement": "IC50", "setting": "[12]; read-out: IC50 of SAH", "value": "12.3 ± 4.1", "unit": "µM"}
    ]}
  ]
}
